Earlier results in patent US11253518B2, “Methods and compositions for the treatment of hair loss” (Aneira Pharma, Inc., priority 2019, dated 2022).
Converted amounts (≈) assume the structure as drawn. Read-outs that look alike come from different tables or passages of the source.

Assays:
[1] = target: T1, human FP receptors (Homo sapiens, UniProt P43088)
[2] = target: T1, human FP receptors; remark: listed apart in the source
[3] = tested on: hair growth; details: for hair growth: McCarey 2004
[4] = believed
[5] = tested on: elevated intraocular pressure; details: glaucomatous monkeys; Gagliuso 2004
[6] = tested on: elevated intraocular pressure; details: some human glaucoma patients; Gandolfi 2003
[7] = tested on: production of dihydrotestosterone (DHT); details: oral; including prostate gland and scalp
[8] = not given; remark: listed apart in the source

T1 sequence (P43088 whole entry): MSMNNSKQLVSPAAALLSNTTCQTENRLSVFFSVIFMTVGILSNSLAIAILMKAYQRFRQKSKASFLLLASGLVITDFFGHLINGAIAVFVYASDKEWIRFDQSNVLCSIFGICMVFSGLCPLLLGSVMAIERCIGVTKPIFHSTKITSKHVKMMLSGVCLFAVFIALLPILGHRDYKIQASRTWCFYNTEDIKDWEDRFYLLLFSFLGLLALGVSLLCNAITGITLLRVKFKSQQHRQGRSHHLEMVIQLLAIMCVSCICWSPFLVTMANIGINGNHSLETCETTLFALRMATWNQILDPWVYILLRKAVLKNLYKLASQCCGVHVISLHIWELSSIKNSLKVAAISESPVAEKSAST

O=C(O)CCC/C=C\C[C@@H]1[C@@H](CC[C@@H](O)CCc2ccccc2)[C@H](O)C[C@@H]1O [Latanoprost free acid]
potency relative to PGF2α [1]: twice the potency | EC50 ([1]; FP receptor agonist): 3.6 nM | potency as FP receptor ligand relative to latanoprost [2]: two-hundred times more potent

CCCCCCCC(=O)CC[C@@H]1[C@@H](C/C=C\CCCC(=O)OC(C)C)[C@@H](O)C[C@H]1O [Uenoprostone isopropyl ester, Unoprostone isopropyl ester]
incidence of iris pigmentation and eyelash changes ([3]; 0.15%, two randomized clinical trials): Low incidence | hair growth [3]: no hair growth

CCNC(=O)CCC/C=C\C[C@@H]1[C@@H](/C=C/[C@@H](O)CCc2ccccc2)[C@H](O)C[C@@H]1O [bimatoprost, Bimatoprost]
amount converted into bimatoprost free acid [4]: under 5% | effect on intraocular pressure together with latanoprost [5]: additive | reduction of elevated intraocular pressure in latanoprost non-responders [6]: responsive

CC(C)(C)NC(=O)[C@H]1CC[C@H]2[C@@H]3CC[C@H]4NC(=O)C=C[C@]4(C)[C@H]3CC[C@]12C [finasteride, (1S,3aS,3bS,5aR,9aR,9bS,11aS)-N-tert-butyl-9a,11a-dimethyl-7-oxo-1,2,3,3a,3b,4,5,5a,6,9b,10,11-dodecahydroindeno[5,4-f]quinoline-1-carboxamide]
decrease of production of dihydrotestosterone (DHT) [7]: about 70%

CC(C)OC(=O)CCC/C=C\C[C@@H]1[C@@H](CC[C@@H](O)CCc2ccccc2)[C@H](O)C[C@@H]1O [latanoprost, isopropyl ester of 17-phenyl-13,14-dihydro prostaglandin F2a]
solubility (1:4 solution of ethanol:PBS (pH 7.2)): 400 µg/mL (≈ 925 µM) | solubility (PBS (pH 7.2)): approximately 50 μg/mL | solubility (propylene glycol, methanol, ethanol and 2-propanol): ≥ 5% | stable for ([8]; acidic or basic aqueous solutions): no more than 48 hours | stable for ([8]; neutral aqueous solutions, room temperature): up to one month

CCCCCCCC(=O)CC[C@@H]1[C@@H](C/C=C\CCCC(=O)O)[C@@H](O)C[C@H]1O [uenoprostone free acid]
hair growth [3]: no hair growth
